# Experimental data taken from patent publication US20080085893A1, “MATRIX METALLOPROTEASE INHIBITORS” (priority 2006, published 2008).
# pIC50: −log10 of the molar value. Values joined by “and” are separate entries in the source; they are usually repeats but may differ in a detail not shown here. Equal entries are not always repeated. Where two headings read alike, the source gives them in different places.
# Key:
# Format in all cases: biochemical
# [1] = target: T1, human MMP-2 (amino acids 1-660) (Homo sapiens, UniProt P08253); test: MMP dose response assay for determining IC50, MMP-2; conditions: recombinant enzyme, fluorescent-quench substrate 100 nM; read-out: MMP-2
# T1 construct: human MMP-2 (amino acids 1-660); made in house
# T1 sequence (P08253 110-660): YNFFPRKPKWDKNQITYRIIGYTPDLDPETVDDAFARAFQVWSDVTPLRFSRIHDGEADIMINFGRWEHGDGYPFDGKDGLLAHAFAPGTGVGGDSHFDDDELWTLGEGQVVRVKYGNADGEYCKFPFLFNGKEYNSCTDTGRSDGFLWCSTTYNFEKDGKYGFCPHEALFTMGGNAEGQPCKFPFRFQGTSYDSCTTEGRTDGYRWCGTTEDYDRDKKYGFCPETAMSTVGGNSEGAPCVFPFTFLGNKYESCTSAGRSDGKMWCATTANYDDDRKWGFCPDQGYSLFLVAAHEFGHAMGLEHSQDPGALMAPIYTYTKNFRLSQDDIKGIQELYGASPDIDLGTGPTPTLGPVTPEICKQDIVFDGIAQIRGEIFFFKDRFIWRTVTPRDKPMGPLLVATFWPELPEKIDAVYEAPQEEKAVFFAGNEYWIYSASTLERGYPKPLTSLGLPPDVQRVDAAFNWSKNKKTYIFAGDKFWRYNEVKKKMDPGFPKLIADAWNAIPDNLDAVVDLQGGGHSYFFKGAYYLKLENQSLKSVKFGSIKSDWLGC
# Procedure: (§1) MMP Dose Response Assay for Determining IC50
# (§2) The following method was used for determining IC50 values of different inhibitor compounds against multiple MMP enzymes. Frozen stocks of recombinantly produced MMPs were prepared in assay buffer (50 mM HEPES pH 7.4, 10 mM CaCl2, 0.05% Brij-35). […] Enzyme concentrations in the assay were determined empirically and set such that proteolytic activity was maintained in a linear range over the time-course of the experiment. […] Each concentration for each test compound was tested in triplicate. MMP enzymes were equilibrated with compounds for 1 hour at room temperature, then a fluorescent-quench substrate (Acetyl-Cys(Eu)-Pro-Leu-Gly-Leu-Lys-(QSY7)-Ala-Arg-amide) was added to a final concentration of 100 nM. […] Data was analyzed by first calculating average background value from wells that contained only substrate, and this value was subtracted from the entire plate. The 100%, or maximum value, was determined by averaging control wells that contained enzyme, substrate and DMSO. For each well, the percent of control was calculated by dividing the well value by the average DMSO value obtained above.
# [2] = target: T2, human MMP-1 (amino acids 100-262) (Homo sapiens, UniProt P03956); test: MMP dose response assay for determining IC50, MMP-1; conditions: recombinant catalytic domain, fluorescent-quench substrate 100 nM
# T2 construct: human MMP-1 (amino acids 100-262); made in house
# T2 sequence (P03956 100-262): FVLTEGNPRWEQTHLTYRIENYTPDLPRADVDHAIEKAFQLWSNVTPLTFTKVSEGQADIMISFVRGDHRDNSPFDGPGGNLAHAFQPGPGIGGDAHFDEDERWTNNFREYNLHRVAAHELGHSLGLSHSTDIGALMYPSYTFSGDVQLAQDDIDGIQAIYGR
# Procedure: as §1, §2
# [3] = target: T3, human MMP-9 (amino acids 107-446) (Homo sapiens, UniProt P14780); test: MMP dose response assay for determining IC50, MMP-9; conditions: for pIC50: recombinant enzyme, fluorescent-quench substrate 100 nM, read-out: MMP-9
# T3 construct: human MMP-9 (amino acids 107-446); made in house
# Procedure: as §1, §2
# T3 sequence (P14780 107-446): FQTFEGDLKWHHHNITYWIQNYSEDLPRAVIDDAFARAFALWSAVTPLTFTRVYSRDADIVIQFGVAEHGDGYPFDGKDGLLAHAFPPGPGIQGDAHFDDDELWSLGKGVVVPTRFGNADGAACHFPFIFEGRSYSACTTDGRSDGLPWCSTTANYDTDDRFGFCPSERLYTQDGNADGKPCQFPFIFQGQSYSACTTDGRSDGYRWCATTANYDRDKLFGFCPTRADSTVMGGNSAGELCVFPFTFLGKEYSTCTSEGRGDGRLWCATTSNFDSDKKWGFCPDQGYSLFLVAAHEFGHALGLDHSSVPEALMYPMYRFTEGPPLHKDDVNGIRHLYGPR
pIC50 [1],pIC50 [2],pIC50 [3],SMILES,IC50 ([3]; MMP-9 (nM))
7.61,< 5.00,8.57,"CC(C)N(CCN1C(=O)N(C)C(C)(C)C1=O)[C@@H](CN(c1ccc(Oc2ccc(C(F)(F)F)cc2)cc1)S(C)(=O)=O)C(=O)NO [Example 80, N-Hydroxy (2S)-2-{N-(2-propyl),N-[2-(1,5,5-trimethylhydantoin-3-yl)ethyl]amino}-3-{N-[4-(4-trifluoromethylphenoxy)phenyl]-N-methanesulfonylamino}propionamide]",
7.73 and 7.81 and 7.82 and 8.28 and 8.02 and 8.00 and 8.10,< 5.00 and 5.21 and 5.06 and 5.14 and 5.13,,"Cc1ccc(Oc2ccc(N(C[C@H](Nc3ccccc3)C(=O)NO)S(C)(=O)=O)cc2)cc1 [Example 30, N-Hydroxy (2S)-3-{N-[4-(4-methylphenoxy)phenyl],N-methanesulfonylamino}-2-phenylaminopropionamide]",
7.33,< 5.00,7.77,"CS(=O)(=O)N(C[C@@H](C(=O)NO)N1CCC(c2ccccc2)CC1)c1ccc(Oc2ccc(C(F)(F)F)cc2)cc1 [Example 76, N-Hydroxy (2S)-3-{N-[4-(4-trifluoromethylphenoxy)phenyl],N-methanesulfonylamino}-2-(4-phenylpiperidin-1-yl)propionamide]",
7.40 and 7.52,< 5.00,8.30 and 8.36,"CS(=O)(=O)N(C[C@H](O)C(=O)NO)c1ccc(Oc2ccc(Cl)cc2)cc1 [Compound 1, N-Hydroxy (2S)-2-hydroxy-3-{N-[4-(4-chlorophenoxy)phenyl], N-methanesulfonylamino}propionamide]",
8.42 and 8.99,< 5.00,9.14 and 9.77,"CS(=O)(=O)N(C[C@@H](C(=O)NO)N1Cc2ccccc2C1)c1ccc(Oc2ccc(C(F)(F)F)cc2)cc1 [Example 72, N-Hydroxy (2S)-2-(isoindolin-2-yl)-3-{N-[4-(4-trifluoromethylphenoxy)phenyl],N-methanesulfonylamino}propionamide]",
7.93,5.17,9.27,"Cc1ccc(Oc2ccc(N(C[C@H](N[C@@H](C)c3ccccc3)C(=O)NO)S(C)(=O)=O)cc2)cc1 [Example 47, N-Hydroxy (2S)-3-{N-[4-(4-methylphenoxy)phenyl],N-methanesulfonylamino}-2-[(1S)-1-phenyl-1-ethyl]aminopropionamide]",
6.94 and 6.77,< 5.00,7.67 and 7.47,"CCS(=O)(=O)N(C[C@H](O)C(=O)NO)c1ccc(Oc2ccc(C)cc2)cc1 [Example 20, N-Hydroxy (2S)-2-hydroxy-3-{N-[4-(4-methylphenoxy)phenyl],N-ethylsulfonylamino}propionamide]",
7.25,< 5.00,7.33,"CS(=O)(=O)N(C[C@H](O)C(=O)NO)c1ccc(C#Cc2ccc(Cl)cc2)cc1 [Example 62, N-Hydroxy (2S)-2-hydroxy-3-{N-[4-(4-chlorophenylacetylene)phenyl],N-methanesulfonylamino}propionamide]",
,< 5.00,,"CS(=O)(=O)N(C[C@@H](C(=O)NO)N1CCc2ccccc2C1)c1ccc(Oc2ccc(C(F)(F)F)cc2)cc1 [Example 73, N-Hydroxy (2S)-2-(1,2,3,4-tetrahydroisoquinolin-2-yl)-3-{N-[4-(4-trifluoromethylphenoxy)phenyl],N-methanesulfonylamino}propionamide]",
,< 5.00,6.54,"Cc1ccc(Oc2ccc(N(C[C@H](O)C(=O)NO)S(=O)(=O)C(C)C)cc2)cc1 [Example 16, N-Hydroxy (2S)-2-hydroxy-3-{N-[4-(4-methylphenoxy)phenyl],N-(2-propyl)sulfonylamino}propionamide]",
,< 5.00,6.46,"Cc1ccc(Oc2ccc(N(C[C@H](O)C(=O)NO)S(=O)(=O)c3ccccc3)cc2)cc1 [Example 21, N-Hydroxy (2S)-2-hydroxy-3-{N-[4-(4-methylphenoxy)phenyl],N-phenylsulfonylamino}propionamide]",
6.08,,7.27,"CS(=O)(=O)N(C[C@H](NC(=O)C1CCOCC1)C(=O)NO)c1ccc(Oc2ccc(C(F)(F)F)cc2)cc1 [Example 93, N-Hydroxy (2S)-2-[(tetrahydropyran-4-yl)carbonylamino]-3-{N-[4-(4-trifluoromethylphenoxy)phenyl],N-methanesulfonylamino}propionamide]",
6.35,,6.80,"CN(O)C(=O)[C@H](CN(c1ccc(Oc2ccc(C(F)(F)F)cc2)cc1)S(C)(=O)=O)N1CCOCC1 [Example 98, N-Hydroxy,N-methyl (2S)-2-(morpholin-4-yl)-3-{N-[4-(4-trifluoromethylphenoxy)phenyl],N-methanesulfonylamino}propionamide]",
7.57,,9.21,"COc1cccc(N[C@@H](CN(c2ccc(Oc3ccc(C)cc3)cc2)S(C)(=O)=O)C(=O)NO)c1 [Example 51, N-Hydroxy (2S)-2-(3-methoxyphenyl)amino-3-{N-[4-(4-methylphenoxy)phenyl],N-methanesulfonylamino}propionamide]",
7.73,,9.16,"COc1ccc(N[C@@H](CN(c2ccc(Oc3ccc(C)cc3)cc2)S(C)(=O)=O)C(=O)NO)cc1 [Example 48, N-Hydroxy (2S)-2-(4-methoxyphenyl)amino-3-{N-[4-(4-methylphenoxy)phenyl],N-methanesulfonylamino}propionamide]",
8.60 and 8.43 and 8.89,,9.24 and 9.19 and 9.77,"C[C@@H]1CN([C@@H](CN(c2ccc(Oc3ccc(Cl)cc3)cc2)S(C)(=O)=O)C(=O)NO)C[C@H](C)O1 [Example 95, N-Hydroxy (2S)-3-{N-[4-(4-chlorophenoxy)phenyl],N-methanesulfonylamino}-2-(cis-2,6-dimethylmorpholin-4-yl)propionamide]",
7.55 and 7.18,< 5.00,,"Cc1ccc(C#Cc2ccc(N(C[C@H](O)C(=O)NO)S(C)(=O)=O)cc2)cc1 [Example 63, N-Hydroxy (2S)-2-hydroxy-3-{N-[4-(4-methylphenylacetylene)phenyl],N-methanesulfonylamino}propionamide]",
,< 5.00,6.61,"Cc1ccc(Oc2ccc(N(C[C@H](O)C(=O)NO)S(=O)(=O)N(C)C)cc2)cc1 [Example 19, N-Hydroxy (2S)-2-hydroxy-3-{N-[4-(4-methylphenoxy)phenyl],N-(dimethylamino)sulfonylamino}propionamide]",
8.12,,8.63,"CS(=O)(=O)N(C[C@@H](C(=O)NO)N1CCCCC1)c1ccc(Oc2ccc(C(F)(F)F)cc2)cc1 [Example 96, N-Hydroxy (2S)-2-(piperidin-1-yl)-3-{N-[4-(4-trifluoromethylphenoxy)phenyl],N-methanesulfonylamino}propionamide]",

SMILES,pIC50 [1],pIC50 [2],pIC50 [3],IC50 ([3]; MMP-9 (nM))
"CO[C@H](CN(c1ccc(Oc2ccc(C)cc2)cc1)S(C)(=O)=O)C(=O)NO [Example 17, N-Hydroxy (2R)-2-methoxy-3-{N-[4-(4-methylphenoxy)phenyl],N-methanesulfonylamino}propionamide]",6.99,< 5.00,,12.7 nM
"Cc1ccc(Oc2ccc(N(C[C@@H](O)C(=O)NO)S(C)(=O)=O)cc2)cc1 [Example 7, N-Hydroxy (2R)-2-hydroxy-3-{N-[4-(4-methylphenoxy)phenyl],N-methanesulfonylamino}propionamide]",7.09 and 7.28,,7.69 and 8.50,
